Results: article PMC1968247 (British Journal of Cancer, 1993)
Where two headings read alike, the source gives them in different places.

How the values were obtained:
MAC 13 tumours = assay: Anti-tumour activity against MAC 13 (tumour weight); assay type: in vivo, NMRI mice; settings: 30 mg kg-1 ip
Experimental: (§1) Br. J. Cancer (1993), 67, 441 446 t? […] Bibby Clinical Oncology Unit, University of Bradford, West Yorkshire, BD7 JDP, UK. […] In vivo anti-tumour activity was examined against three transplantable adenocarcinomas of the mouse colon and in vivo bone marrow toxicity was assessed using a spleen colony forming unit assay. The pharmacokinetic behaviour of the drug in vivo and drug stability in vitro was analysed by gas chromatography with electron capture detection. […] Clinical responses to cytotoxic agents have been largely restricted to the haematological malignancies while the majority of human solid tumours have remained refractory to chemotherapy (Marsoni et al., 1987). […] However, their clinical usefulness has been limited by non-selective host toxicity, particularly myelosuppres- sion. The chloroethylnitrosoureas decompose spontaneously in aqueous solution to generate reactive intermediates that are capable of alkylating and carbamoylating nucleophilic targets (Cheng et al., 1972). Alkylation reactions consist of chloroethylations and hydroxyethylations of DNA (Tong et al., 1982). Chloroethylation of 06-guanine with subsequent cross-link formation is considered to be the most important cytotoxic reaction (Lown et al., 1978) while hydroxyethyla- tion reactions are thought to be responsible for their mutagenic and carcinogenic effects (Pelfrene et al., 1976; Swenson et al., 1979). […] In the search for other types of compound that would chloroethylate DNA, a series of 2-haloethylsulphonates was synthesised (Shealy et al., 1983). […] Recently, the NCI has introduced a new disease-orientated screening programme based on the assessment of the in vitro cytotoxicity of a panel of cell lines representing the common clinical forms of human cancers using a colorimetric assay (Boyd, 1989). […] One reason for this discrepancy is that the in vitro tests ignore the potential role played by the pharmacokinetic behaviour and bioavailability of a drug in determining tumour responses in vivo. […] It has been used extensively as part of the pre-clinical evaluation of new anti-cancer agents within the Screening and Pharmacology Group of the EORTC (Bibby et al., 1988b). The feasibility of performing minimal toxicity studies in conjunction with anti-tumour studies has been described (Bibby et al., 1988b). […] Correspondence: A.M. Matthew. Received 6 December 1991; and in revised form 13 October 1992. Br. J. Cancer (1993), 67, 441-446 '?" Macmillan Press Ltd., 1993 442 A.M. MATIHEW et al. ethylating agents with improved therapeutic indices. The assessment of stem cell survival has been recommended to study irreversible cytotoxic bone marrow injury (Schofield, 1986) and this can be performed readily in mice using a spleen colony forming unit assay. […] In vitro activity was assessed against a panel of established murine and human tumour cell lines while in vivo anti-tumour responses were evaluated against an ascitic tumour, MAC 15A, and two solid subcutaneous (sc) tumours, MAC 13 and MAC 26. MAC 13 is relatively nitrosourea-sensitive due to a low level of the repair enzyme 06-alkylguanine-DNA alkyltransferase while MAC 26 is relatively nitrosourea-resistant due to a high repair enzyme level (Lunn et al., 1989). In vivo bone marrow toxicity and pharmacokinetic studies and in vitro drug stability studies were performed in conjunction with the anti-tumour studies. […] Chlorozotocin was dissolved in 10% dimethylsulphoxide (DMSO)/arachis oil. Drug solutions were prepared at an appropriate concentration for the desired in vivo dose to be administered in 0.1 ml per 10 g body weight by intra- peritoneal (ip) or intravenous (iv) injection and for the desired final concentration in vitro to be achieved upon a 1 in 10 dilution. […] Chemosensitivity testing In vitro chemosensitivity was assessed using a modified micro-tetrazolium (MTT) assay (Twenty- man & Luscombe, 1987).

MAC 15A ascites tumour = assay: Anti-tumour activity against MAC 15A (median survival time); assay type: in vivo, NMRI mice; settings: 30 mg kg-1 ip
Experimental: as §1

[1] = Maximum tolerated dose, full dose range to the point of toxicity; settings: ip, mice
Experimental: Br. J. Cancer (1993), 67, 441 446 t? […] Bibby Clinical Oncology Unit, University of Bradford, West Yorkshire, BD7 JDP, UK. […] In vivo anti-tumour activity was examined against three transplantable adenocarcinomas of the mouse colon and in vivo bone marrow toxicity was assessed using a spleen colony forming unit assay. The pharmacokinetic behaviour of the drug in vivo and drug stability in vitro was analysed by gas chromatography with electron capture detection. […] Clinical responses to cytotoxic agents have been largely restricted to the haematological malignancies while the majority of human solid tumours have remained refractory to chemotherapy (Marsoni et al., 1987). […] However, their clinical usefulness has been limited by non-selective host toxicity, particularly myelosuppres- sion. The chloroethylnitrosoureas decompose spontaneously in aqueous solution to generate reactive intermediates that are capable of alkylating and carbamoylating nucleophilic targets (Cheng et al., 1972). Alkylation reactions consist of chloroethylations and hydroxyethylations of DNA (Tong et al., 1982). Chloroethylation of 06-guanine with subsequent cross-link formation is considered to be the most important cytotoxic reaction (Lown et al., 1978) while hydroxyethyla- tion reactions are thought to be responsible for their mutagenic and carcinogenic effects (Pelfrene et al., 1976; Swenson et al., 1979). […] The assessment of stem cell survival has been recommended to study irreversible cytotoxic bone marrow injury (Schofield, 1986) and this can be performed readily in mice using a spleen colony forming unit assay. […] In vitro activity was assessed against a panel of established murine and human tumour cell lines while in vivo anti-tumour responses were evaluated against an ascitic tumour, MAC 15A, and two solid subcutaneous (sc) tumours, MAC 13 and MAC 26. […] Chemosensitivity testing In vitro chemosensitivity was assessed using a modified micro-tetrazolium (MTT) assay (Twenty- man & Luscombe, 1987).

MAC 26 tumours = settings: for Survivors: MAC 26 bearers
Experimental: as §1

bone marrow = settings: 24 h
Experimental: as §1

CN(C)S(=O)(=O)CCNC(=O)N(CCCl)N=O [TCNU, 1-(2-chloroethyl)-3-[2-(dimethylaminosulphonyl)ethyl]-I -nitro-sourea]
% Tumour weight inhibition (MAC 13 tumours): 91.3%
T/C% (MAC 15A ascites tumour): 200%
Maximum tolerated dose [1]: 30 mg kg-'
Tumour growth delay (MAC 26 tumours; MAC 26, 30 mg kg-1 ip): 11.6 days
Survivors (MAC 26 tumours; 30 mg kg-1 ip): 10/10
Survivors (MAC 26 tumours; 50 mg kg-1 ip): 0/5
Survival fraction (bone marrow; 5 mg kg-1 ip): 0.61
Survival fraction (bone marrow; 10 mg kg-1 ip): 0.20
Survival fraction (bone marrow; 30 mg kg-1 ip): 0
No. colonies observed (bone marrow; 30 mg kg-1 ip, mean, SD, n = 6): 0
